Molecules are shown by their SMILES. pIC50: −log10 of the molar value.

The first assay deals with EBI2 (Homo sapiens, UniProt P32249). Briefly: Cell-based luminescent assay (EBI2 modulation).
Sequence of EBI2 (P32249 whole entry): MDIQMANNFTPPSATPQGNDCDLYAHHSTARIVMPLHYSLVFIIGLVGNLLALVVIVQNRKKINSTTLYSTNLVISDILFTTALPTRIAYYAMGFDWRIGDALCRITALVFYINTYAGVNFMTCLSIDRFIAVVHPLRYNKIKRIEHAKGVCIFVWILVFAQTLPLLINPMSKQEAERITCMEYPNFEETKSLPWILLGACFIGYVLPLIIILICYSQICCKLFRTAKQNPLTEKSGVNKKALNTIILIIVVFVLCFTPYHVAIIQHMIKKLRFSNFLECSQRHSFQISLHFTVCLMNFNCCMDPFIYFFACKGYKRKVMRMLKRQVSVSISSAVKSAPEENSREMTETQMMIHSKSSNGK
Settings: not given
The procedure, abridged: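 Cells plated overnight at 37° C, then exposed to compound at 4-5 uM final with 80 nM 7a,25-OHC agonist for 60 min at 37° C. Luminescence read after 60 min detection at 25° C in the dark; values normalized to neutral and stimulator controls and plate-pattern corrected.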
What is called pIC50 is −log10 of the IC50, conventionally taken in molar units. In the case of `O=C(/C=C/c1ccccc1)N1CCN(Cc2ccc(Cl)cc2)CC1` [Compound C354, (2E)-1-{4-[(4-chlorophenyl)methyl]piperazinyl}-3-phenylprop-2-en-1-one], the pIC50 was over 7.00.

The same assay, now with this note: cell-based luminescence; 7a,25-OHC final assay concentration 80 nM; 60 minutes incubation; read-out: IC50.
In the case of `O=C(c1ccc2cc3ccccc3cc2c1)N1CCN(C(c2ccccc2)c2ccccc2)CC1` [Compound C301, 2-anthryl 4-(diphenylmethyl)piperazinyl ketone], the pIC50 was over 7.00.

As to `O=C(C#Cc1cccc(Cl)c1)N1CCN(Cc2ccc(F)cc2C(F)(F)F)CC1` [Compound C302, 3-(3-chlorophenyl)-1-(4-{[4-fluoro-2-(trifluoromethyl)phenyl]methyl}piperazinyl)prop-2-yn-1-one], the pIC50 was over 7.00. Same read-out and setting: in the case of `COc1ccc2cc(C(=O)N3CCN(C(c4ccccc4)c4ccccc4)CC3)[nH]c2c1` [Compound C304, 4-(diphenylmethyl)piperazinyl 6-methoxyindol-2-yl ketone] it was over 7.00.

With `Nc1ccc(/C=C/C(=O)N2CCN(C(c3ccccc3)c3ccccc3)CC2)cc1` [Compound C305, (2E)-3-(4-aminophenyl)-1-[4-(diphenylmethyl)piperazinyl]prop-2-en-1-one], the pIC50 is over 7.00.

For the molecule `CCOc1ccc(/C=C/C(=O)N2CCN(S(=O)(=O)c3ccc(C(C)=O)cc3)CC2)cc1` [Compound C307, 4-({4-[(2E)-3-(4-ethoxyphenyl)prop-2-enoyl]piperazinyl}sulfonyl)-1-acetylbenzene], the pIC50 was over 7.00. With `O=C(/C=C/c1ccccc1)N1CCN(Cc2cccc3ccccc23)CC1` [Compound C308, (2E)-1-[4-(naphthylmethyl)piperazinyl]-3-phenylprop-2-en-1-one], the pIC50 was over 7.00.

Consider `O=C(C#Cc1ccccc1C(F)(F)F)N1CCN(C(=O)c2ccc(Cl)cc2)CC1` [Compound C309, 1-{4-[(4-chlorophenyl)carbonyl]piperazinyl}-3-[2-(trifluoromethyl)phenyl]prop-2-yn-1-one], for which the pIC50 was over 7.00. In the case of `O=C(c1ccc(-c2nnn[nH]2)cc1)N1CCN(C(=O)c2cc3ccc(Br)cc3[nH]2)CC1` [Compound C310, 6-bromoindol-2-yl 4-[(4-(1H-1,2,3,4-tetraazol-5-yl)phenyl)carbonyl]piperazinyl ketone], the pIC50 was over 7.00. The same measure, in the same setting: in the case of `S=C(c1cnc2ccccc2c1)N1CCN(C(c2ccccc2)c2ccccc2)CC1` [Compound C311, [4-(diphenylmethyl)piperazinyl]-3-quinolylmethane-1-thione] it was over 7.00. On the same count and under the same terms, in the case of `CCCCN1CCN(C(=O)/C=C/c2ccccc2)CC1` [Compound C312, (2E)-1-(4-butylpiperazinyl)-3-phenylprop-2-en-1-one] it was over 7.00. Still for that read-out and setting: to `COc1cccc(S(=O)(=O)N2CCN(C(=O)/C=C/c3ccc(F)cc3)CC2)c1` [Compound C314, (2E)-3-(4-fluorophenyl)-1-{4-[(3-methoxyphenyl)sulfonyl]piperazinyl}prop-2-en-1-one] belongs over 7.00. Regarding `O=C(c1cc2cc(Cl)ccc2[nH]1)N1CCC(Oc2ccc(F)cc2)CC1` [Compound C315, 5-chloroindol-2-yl 4-(4-fluorophenoxy)piperidyl ketone], the pIC50 is over 7.00.

Take `O=C(C#Cc1cccc(Cl)c1)N1CCN(Cc2ccc(Cl)cc2)CC1` [Compound C316, 3-(3-chlorophenyl)-1-{4-[(4-chlorophenyl)methyl]piperazinyl}prop-2-yn-1-one]: the negative logarithm of the IC50 (pIC50) is over 7.00. Consider `O=C(c1cc2cc(Cl)ccc2[nH]1)N1CCC(Oc2ccc(Cl)cc2)CC1` [Compound C317, 5-chloroindol-2-yl 4-(4-chlorophenoxy)piperidyl ketone], for which the pIC50 was over 7.00. The same measure, in the same setting: in the case of `O=C(c1cc2cc(Cl)ccc2[nH]1)N1CCN(Cc2ccc(F)cc2)CC1` [Compound C319, 5-chloroindol-2-yl 4-[(4-fluorophenyl)methyl]piperazinyl ketone] it was over 7.00; in that of `O=C(/C=C/c1ccccc1Cl)N1CCN(C(c2ccccc2)c2ccccc2)CC1` [Compound C320, (2E)-1-[4-(diphenylmethyl)piperazinyl]-3-(2-chlorophenyl)prop-2-en-1-one], over 7.00; in that of `Cc1ccc(NC2CCN(C(=O)c3cc4cc(Cl)ccc4[nH]3)CC2)cc1C` [Compound C322, 4-[(3,4-dimethylphenyl)amino]piperidyl 5-chloroindol-2-yl ketone], over 7.00.

As to `O=C(/C=C/c1ccc(F)cc1)N1CCN(S(=O)(=O)Cc2ccccc2)CC1` [Compound C323, (2E)-3-(4-fluorophenyl)-1-{4-[benzylsulfonyl]piperazinyl}prop-2-en-1-one], the pIC50 was over 7.00. On the same count and under the same terms, in the case of `COC(=O)c1ccc(CN2CCN(C(=O)c3cc4cc(Cl)ccc4[nH]3)CC2)cc1` [Compound C324, methyl 4-({4-[(5-chloroindol-2-yl)carbonyl]piperazinyl}methyl)benzoate] it was over 7.00; in that of `O=C(c1cc2cc(Cl)ccc2[nH]1)N1CCN(Cc2ccc(-c3ccccc3)cc2)CC1` [Compound C327, 5-chloroindol-2-yl 4-[(4-phenylphenyl)methyl]piperazinyl ketone], over 7.00.

For the molecule `Cc1ccc2[nH]c(C(=O)N3CCN(Cc4ccc(Cl)c(Cl)c4)CC3)cc2c1` [Compound C328, 4-[(3,4-dichlorophenyl)methyl]piperazinyl 5-methylindol-2-yl ketone], the pIC50 is over 7.00.

Regarding `O=C(c1ccc(C(F)(F)F)c(F)c1)N1CCN(C(=O)c2cc3ccc(Br)cc3[nH]2)CC1` [Compound C329, 6-bromoindol-2-yl 4-{[3-fluoro-4-(trifluoromethyl)phenyl]carbonyl}piperazinyl ketone], the pIC50 was over 7.00.

With `O=C(c1cc2cc(Cl)ccc2[nH]1)N1CCN(Cc2ccc(C(F)(F)F)cc2)CC1` [Compound C331, 5-chloroindol-2-yl 4-{[4-(trifluoromethyl)phenyl]methyl}piperazinyl ketone], the negative-log IC50 (pIC50) was over 7.00.

Turning to `COc1ccc(CN2CCN(C(=O)/C=C/c3ccccc3)CC2)cc1` [Compound C332, (2E)-1-{4-[(4-methoxyphenyl)methyl]piperazinyl}-3-phenylprop-2-en-1-one], the pIC50 is over 7.00.

As to `CC(C)(C)c1ccc(S(=O)(=O)N2CCN(C(=O)/C=C/c3ccc(Cl)c(Cl)c3)CC2)cc1` [Compound C334, (2E)-3-(3,4-dichlorophenyl)-1-(4-{[4-(tert-butyl)phenyl]sulfonyl}piperazinyl)prop-2-en-1-one], the pIC50 is over 7.00. For `O=C(C#Cc1ccc(Br)cc1)N1CCN(C(=O)c2ccc(F)cc2C(F)(F)F)CC1` [Compound C336, 3-(4-bromophenyl)-1-(4-{[4-fluoro-2-(trifluoromethyl)phenyl]carbonyl}piperazinyl)prop-2-yn-1-one], the pIC50 is over 7.00. `CC(C)c1ccc2[nH]c(C(=O)N3CCN(C(c4ccccc4)c4ccccc4)CC3)cc2c1` [Compound C338, 4-(diphenylmethyl)piperazinyl 5-(methylethyl)indol-2-yl ketone]: the pIC50 was over 7.00. The same measure, in the same setting: in the case of `Cc1ccc2[nH]c(C(=O)N3CCN(Cc4ccc(Cl)cc4)CC3)cc2c1` [Compound C339, 4-[(4-chlorophenyl)methyl]piperazinyl 5-methylindol-2-yl ketone] it was over 7.00; in that of `N#Cc1ccccc1S(=O)(=O)N1CCN(C(=O)/C=C/c2ccc(F)cc2)CC1` [Compound C341, 2-({4-[(2E)-3-(4-fluorophenyl)prop-2-enoyl]piperazinyl}sulfonyl)benzenecarbonitrile], over 7.00; in that of `O=C(C#Cc1cc(F)cc(F)c1)N1CCN(C(=O)c2ccc(Cl)cc2)CC1` [Compound C343, 3-(3,5-difluorophenyl)-1-{4-[(4-chlorophenyl)carbonyl]piperazinyl}prop-2-yn-1-one], over 7.00. In the case of `O=C(/C=C/c1ccccc1)N1CCN(Cc2ccccc2Br)CC1` [Compound C344, (2E)-1-{4-[(2-bromophenyl)methyl]piperazinyl}-3-phenylprop-2-en-1-one], the negative-log IC50 (pIC50) is over 7.00.

On to `O=C(c1cc2ccccc2[nH]1)N1CCN(CCc2ccccc2)CC1` [Compound C347, indol-2-yl 4-(phenylethyl)piperazinyl ketone], for which the pIC50 was over 7.00. Still for that read-out and setting: in the case of `O=C(C#Cc1ccc(F)cc1F)N1CCN(C(=O)c2ccc(Cl)cc2)CC1` [Compound C349, 3-(2,4-difluorophenyl)-1-{4-[(4-chlorophenyl)carbonyl]piperazinyl}prop-2-yn-1-one] it was over 7.00. As to `O=C(c1ccc2ccccc2n1)N1CCN(C(c2ccccc2)c2ccccc2)CC1` [Compound C351, 4-(diphenylmethyl)piperazinyl 2-quinolyl ketone], the pIC50 is over 7.00. In the case of `O=C(C#Cc1cccc(Cl)c1)N1CCN(Cc2ccc(C(F)(F)F)cc2)CC1` [Compound C353, 3-(3-chlorophenyl)-1-(4-{[4-(trifluoromethyl)phenyl]methyl}piperazinyl)prop-2-yn-1-one], the pIC50 was over 7.00. Still for that read-out and setting: to `O=C(/C=C/c1ccc(Br)cc1)N1CCCN(S(=O)(=O)/C=C/c2ccccc2)CC1` [Compound C355, (2E)-1-{4-[((1E)-2-phenylvinyl)sulfonyl](1,4-diazaperhydroepinyl)}-3-(4-bromophenyl)prop-2-en-1-one] belongs over 7.00; to `O=C(C#Cc1ccc(Cl)cc1)N1CCN(Cc2ccc(C(F)(F)F)cc2)CC1` [Compound C356, 3-(4-chlorophenyl)-1-(4-{[4-(trifluoromethyl)phenyl]methyl}piperazinyl)prop-2-yn-1-one], over 7.00; to `Cc1cc(F)ccc1OC1CCN(C(=O)c2cc3cc(Cl)ccc3[nH]2)CC1` [Compound C357, 5-chloroindol-2-yl 4-(4-fluoro-2-methylphenoxy)piperidyl ketone], over 7.00. On the same count and under the same terms, in the case of `COC(=O)c1cccc(CN2CCN(C(=O)c3cc4cc(Cl)ccc4[nH]3)CC2)c1` [Compound C358, methyl 3-({4-[(5-chloroindol-2-yl)carbonyl]piperazinyl}methyl)benzoate] it was over 7.00.

The values are drawn from patent publication US9776979B2, “EBI2 modulators” (Sanford-Burnham Medical Research Institute, priority 2013, dated 2017).
